Measured values as given in patent US20150065470A1, “Steroid Sulfatase Inhibitor Regimen for the Treatment of Endometriosis” (priority 2012, published 2015).

Tests used:
STS [1] = molecular target: T1, STS (Homo sapiens, UniProt P08842); conditions: cited from earlier work
T1 sequence (P08842 22-583): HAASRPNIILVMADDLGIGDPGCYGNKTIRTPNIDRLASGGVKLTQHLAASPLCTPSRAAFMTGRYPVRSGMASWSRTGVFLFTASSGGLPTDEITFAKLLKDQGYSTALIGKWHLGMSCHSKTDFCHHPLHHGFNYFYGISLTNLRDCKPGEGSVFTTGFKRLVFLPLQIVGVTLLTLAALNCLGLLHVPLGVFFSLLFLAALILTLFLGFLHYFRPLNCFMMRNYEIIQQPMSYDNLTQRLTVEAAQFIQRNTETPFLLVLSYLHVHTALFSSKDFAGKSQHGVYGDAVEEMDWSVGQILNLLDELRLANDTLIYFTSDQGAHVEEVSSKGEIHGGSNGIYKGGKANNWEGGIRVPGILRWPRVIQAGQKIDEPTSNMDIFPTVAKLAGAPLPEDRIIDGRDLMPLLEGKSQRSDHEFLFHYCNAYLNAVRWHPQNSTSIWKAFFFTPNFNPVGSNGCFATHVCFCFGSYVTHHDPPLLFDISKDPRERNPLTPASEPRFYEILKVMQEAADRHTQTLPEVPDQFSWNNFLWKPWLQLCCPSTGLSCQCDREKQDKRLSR

STS [2] = molecular target: T1, STS; conditions: cited from earlier work; remark: listed apart in the source
[3] = molecular target: T2, Steroid Sulfatase in endometrium (Homo sapiens, UniProt P08842); test: STS activity in endometrium, Example 2 (LC-MS/MS); type: in vivo; conditions: E2MATE 4 mg weekly and/or NETA 10 mg daily for 4 weeks
T2 construct: from tissue; host or cells: endometrium (biopsies) of dosed women
T2 sequence (P08842 22-583): T1 sequence (P08842 22-583)
Experimental: (§1) STS activity was determined by spiking specimens with labelled E1-S and by measuring its conversion to E1 per gram protein under standardized incubation conditions using LC-MS/MS. Protein concentration was evaluated with a validated colorimetric assay (Bradford method).

E2 and P4; T and D4A = test: Hormone profiles (E2, P4, T, D4A), Example 2; type: in vivo, human
Experimental: Hormone profiles were determined as described in Example 1.

[4] = Safety, tolerability and post-treatment menstruation cycles, Example 2; conditions: follow-up, ultrasound
Source text: Menstruation cycle length was not influenced by the treatment. […] Sizes of right and left ovary differed slightly for each subject, but no clinically relevant changes were identified by the gynaecologists.

STS activity in PBMCs = molecular target: T3, STS activity in PBMCs (Homo sapiens, UniProt P08842); test: STS activity in PBMCs, Example 2 (LC-MS/MS); type: in vivo; conditions: E2MATE 4 mg weekly and/or NETA 10 mg daily for 4 weeks
T3 construct: Pharmacodynamic properties were investigated by assessment of the STS activity in PBMCs; endogenous in cells; host or cells: peripheral blood mononuclear cells (PBMCs) of dosed women
T3 sequence (P08842 22-583): T1 sequence (P08842 22-583)
Experimental: as §1

Compound: C[C@]12CCC3c4ccc(OS(N)(=O)=O)cc4CCC3C1CCC2=O (stereo partly drawn) [EMATE, Estrone-3-o-sulfamate]
- STS inhibition (STS [1]): active STS inhibitors

Compound: NS(=O)(=O)Oc1ccc2c3c(c(=O)oc2c1)CCCCC3
- blocking STS activity in both eutopic and ectopic tissues (STS [2]): effective in blocking STS activity

Compound: C#C[C@]1(OC(C)=O)CC[C@H]2[C@@H]3CCC4=CC(=O)CC[C@@H]4[C@H]3CC[C@@]21C [NETA, norethindrone (norethisterone) acetate, reference compound]
- AVG [%] average inhibition of Steroid Sulfatase in endometrium (average effect over time (AUC)) [3]: 14.9 (27.0) %
- Emax [%] maximal inhibition of Steroid Sulfatase in endometrium [3]: 46.7 (42.8) %
- mean concentration-time profiles in E2 and P4 (E2 and P4; T and D4A; first cycle up to Day 29, normal increase on Day 43): suppressed
- mean concentration-time profiles for T and D4A (E2 and P4; T and D4A; multiple dose administration): No relevant differences
- ovarian size [4]: no apparent effect
- mean percentage inhibition of STS activity in PBMCs (STS activity in PBMCs; Day 4): 12%
- average inhibition of STS activity in PBMCs (STS activity in PBMCs): 4%
